The results in this text go back to patent US8986662B2, “Use of silane and siloxane bis(biphenyl) triazine derivatives as UV absorbers” (BASF SE, priority 2010, dated 2015).

Molecules are shown by their SMILES.

Type in all cases: physicochemical
Series [1] in a line: Measurement of solubility in Capric/Caprylic Triglyceride. The following applies: solvent Capric/Caprylic Triglyceride.
Series [2] is described as follows: UV spectrum in tetrahydrofurane (synthesis examples). The following applies: for ε: at λmax.
A short description of series [3]: Measurement of photostability: irradiation of highly diluted ethanol solution, analysis by UV-spectroscopy. The following applies: first order kinetic model; diluted solution in ethanol; half-life under COLIPA standard sun irradiation. As to the method: The method used for assessment of photostability is based on the irradiation of a highly diluted solution of the UV-filter. The analysis after certain doses of irradiation was performed by UV-spectroscopy. The concentration of the UV-absorber in ethanol is adjusted to values between […], such that the absorbance of the solution in cuvette of 1 cm optical pathlength is equal or smaller than 0.2. The mutual protection of filter molecules can be excluded under such conditions.
Prior to irradiation of a sample the UVB-intensity at the sample position is measured with a UV-radiometer (RM-12, Dr. Grobel Electronic GmbH). […] Therefore the relationship of the reading of the RM-12 radiometer and the corresponding spectral output of the lamp is known, and one is able to determine the wavelength-resolved intensities by measuring the UVB-intensity. […]
For sample irradiation the highest possible intensity was used (4.5 mW/cm^2 UVB-intensity measured with the Macam 103 radiometer). […] After certain intervals of irradiation, the samples were analysed in a UV-spectrometer (Perkin Elmer, Lambda 16).
From the absorbance values at each dose of irradiation the concentration may be calculated using Lambert-Beer's law. […]

A short description of series [4]: UV shielding properties: UV spectra in ethanol. An excerpt:
The UV shielding properties of the bisbiphenyl triazine derivatives were investigated by measuring their UV spectra in ethanol. In the following table the investigated absorption maxima (λmax) together with the corresponding A^1%1cm values are listed.

In the case of `CC[Si](CC)(CC)CCCOc1ccc(-c2nc(-c3ccc(-c4ccccc4)cc3)nc(-c3ccc(-c4ccccc4)cc3)n2)c(O)c1` [S-2], the “Solubility in Capric/Caprylic Triglyceride” value in series [1] was found to be 22.8 w-%. Also, in series [2], the λmax came to 319 nm and the ε amounted to 76300 M⁻¹ cm⁻¹. The Half time in series [3] was 412.1 h. For the same compound, in series [4], the “Absorption maximum λmax” value is 319.
In the case of `CCO[Si](CCCOc1ccc(-c2nc(-c3ccc(-c4ccccc4)cc3)nc(-c3ccc(-c4ccccc4)cc3)n2)c(O)c1)(OCC)OCC` [S-8], in series [2], the λmax was 320 nm and the ε worked out at 75800 M⁻¹ cm⁻¹. This compound showed a Half time in series [3] of 342.2 h. Further, the “Absorption maximum λmax” value in series [4] is listed as 320.
